The target of the assay is T1, recombinant human GST-Syk (Homo sapiens, UniProt P43405).
T1 construct: purchased Carna Biosciences 08-176
As to the kind of experiment: Homogeneous Time-Resolved Fluorescence (HTRF) assay for the recombinant human Syk enzyme. Conditions: recombinant human GST-Syk 5 pM, ATP 25 μM, 10-dose titration 10 μM to 0.508 nM; read-out: rhSYK Activity IC50. Format: biochemical. The essentials: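 GST-hSyk fusion protein phosphorylated a peptide for 45 min at room temperature. The reaction was quenched with 2 nM Eu-anti-phosphotyrosine antibody and 70 nM SA-APC in 15 mM Tris pH 7.5, 40 mM EDTA, 0.01% Tween 20. The HTRF signal was read after 30 min.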
For orientation: In TR-FRET formats the signal depends on donor and acceptor labels being close together.
For `Cc1cc(Nc2nccc(C(F)(F)F)n2)cc(-n2cc([Si](C)(C)C)nn2)c1` [Example 15.12, N-{3-methyl-5-[4-(trimethylsilyl)-1H-1,2,3-triazol-1-yl]phenyl}-4-(trifluoromethyl)pyrimidin-2-amine], the IC50 was 284 nM.
With `Cc1cc(Nc2cc(C(F)(F)F)ccn2)nc(-c2cn(C(C)C(=O)NCCc3ccc4ccccc4c3)nn2)c1` (stereo not shown) [Example 1.32, 2-[4-(4-methyl-6-{[4-(trifluoromethyl)pyridin-2-yl]amino}pyridin-2-yl)-1H-1,2,3-triazol-1-yl]-N-(2-naphthalen-2-ylethyl)propanamide], the IC50 was 357 nM.
Under `Cc1cc(Nc2ncc(F)c(C(F)F)n2)cc(-c2cn(C3CCCCC3(C)O)nn2)c1` (single isomer, unassigned) [Example 7.26, 2-[4-(3-{[4-(difluoromethyl)-5-fluoropyrimidin-2-yl]amino}-5-methylphenyl)-1H-1,2,3-triazol-1-yl]-1-methylcyclohexanol] stands 13.1 nM; under `Cc1cc(Nc2nccc(C)n2)cc(-c2cn(C3CCCCC3(C)O)nn2)c1` (single isomer, unassigned) [Example 7.28, 1-methyl-2-(4-{3-methyl-5-[(4-methylpyrimidin-2-yl)amino]phenyl}-1H-1,2,3-triazol-1-yl)cyclohexanol], 77.6 nM; under `Cc1cc(Nc2nccc(C(F)(F)F)n2)cc(-c2cn(CC(=O)O)nn2)c1` [Example 5.58, [4-(3-methyl-5-{[4-(trifluoromethyl)pyrimidin-2-yl]amino}phenyl)-1H-1,2,3-triazol-1-yl]acetic acid], 61.3 nM.
Consider `CC(=O)N1CCN(C(=O)Cn2cc(-c3cc(C)cc(Nc4nccc(C(F)(F)F)n4)c3)nn2)CC1` [Example 5.59, N-(3-{1-[2-(4-acetylpiperazin-1-yl)-2-oxoethyl]-1H-1,2,3-triazol-4-yl}-5-methylphenyl)-4-(trifluoromethyl)pyrimidin-2-amine], for which the half-maximal inhibitory concentration (IC50) worked out at 69.8 nM.
To `Cc1cc(Nc2cc(C(C)(C)C)ccn2)nc(-c2cn(C(C)c3ccc(C(=O)O)cc3)nn2)c1` (stereo not shown) [Example 2.12, 4-[1-(4-{6-[(4-tert-butylpyridin-2-yl)amino]-4-methylpyridin-2-yl}-1H-1,2,3-triazol-1-yl)ethyl]benzoic acid] belongs 5.5 nM; to `Cc1cc(Nc2cc(C(F)(F)F)ccn2)nc(-c2cn([C@@H]3CN(C(=O)CO)C[C@H]3O)nn2)c1` (racemic) [Example 13.1, (+/−)-2-Bydroxy-1-((3R,4R)-3-hydroxy-4-(4-(4-methyl-6-((4-(trifluoromethyl)pyridin-2-yl)amino)pyridin-2-yl)-1H-1,2,3-triazol-1-yl)pyrrolidin-1-yl)ethanone], 4.2 nM; to `Cc1cc(Nc2cc(C(F)F)ccn2)nc(-c2cn(CC(C)(O)C(C)(C)O)nn2)c1` (stereo not shown) [Example 21.36, 1-[4-(6-{[4-(difluoromethyl)pyridin-2-yl]amino}-4-methylpyridin-2-yl)-1H-1,2,3-triazol-1-yl]-2,3-dimethylbutane-2,3-diol], 8.1 nM.
`COC(=O)C1CCC(O)(Cn2cc(-c3cc(C)cc(Nc4nccc(C(F)(F)F)n4)c3)nn2)CC1(C)C` (stereo not shown) [Example 4.11, methyl 4-hydroxy-2,2-dimethyl-4-{[4-(3-methyl-5-{[4-(trifluoromethyl)pyrimidin-2-yl]amino}phenyl)-1H-1,2,3-triazol-1-yl]methyl}cyclohexanecarboxylate]: the IC50 stood at 145 nM.
Regarding `C/C=C/Cn1cc(-c2cc(C)cc(Nc3cc(C(F)(F)F)ccn3)n2)nn1` [Example 5.38, 6-{1-[(2E)-but-2-en-1-yl]-1H-1,2,3-triazol-4-yl}-4-methyl-N-[4-(trifluoromethyl)pyridin-2-yl]pyridin-2-amine], the IC50 is 17.8 nM.
On to `Cc1cc(Nc2nccc(C(F)(F)F)n2)cc(-c2cn(CC3(O)CCC(C(=O)O)C(C)(C)C3)nn2)c1` (single isomer, unassigned) [Example 3.3, (R or S) 4-hydroxy-2,2-dimethyl-4-{[4-(3-methyl-5-{4-(trifluoromethyl)pyrimidin-2-yl]amino}phenyl)-1H-1,2,3-triazol-1-yl]methyl}cyclohexanecarboxylic acid], for which the IC50 was determined as 54.3 nM.
Turning to `Cc1cc(Nc2cc(C(F)(F)F)ccn2)nc(-c2cn(C(C)C(=O)NCc3cccc4nsnc34)nn2)c1` (stereo not shown) [Example 1.33, N-(2,1,3-benzothiadiazol-4-ylmethyl)-2-[4-(4-methyl-6-{[4-(trifluoromethyl)pyridin-2-yl]amino}pyridin-2-yl)-1H-1,2,3-triazol-1-yl]propanamide], the IC50 came out at 325 nM.
To `Cc1cc(Nc2cc(C(F)(F)F)ccn2)nc(-c2cn(C(C)C(=O)NC3CCS(=O)(=O)C3)nn2)c1` (racemic) [Example 1.2, N-(1,1-Dioxidotetrahydrothiophen-3-yl)-2-[4-(4-methyl-6-{[4-(trifluoromethyl)pyridin-2-yl]amino}pyridin-2-yl)-1H-1,2,3-triazol-1-yl]propanamide (racemic)] belongs 42.8 nM.
Under `Cc1cc(Nc2cc(C(F)F)ccn2)nc(-c2cn(CC3CNC(=O)C3)nn2)c1` (single isomer, unassigned) [Example 24.1, 4-((4-(6-((4-(difluoromethyl)pyridin-2-yl)amino)-4-methylpyridin-2-yl)-1H-1,2,3-triazol-1-yl)methyl)pyrrolidin-2-one] stands 12.3 nM; under `Cc1cc(Nc2cc(C(F)(F)F)ccn2)nc(-c2cn(C(CO)c3ccc(F)cc3)nn2)c1` (stereo not shown) [Example 13.7, 2-(4-fluorophenyl)-2-[4-(4-methyl-6-{[4-(trifluoromethyl)pyridin-2-yl]amino}pyridin-2-yl)-1H-1,2,3-triazol-1-yl]ethanol], 3.7 nM; under `Cc1cc(Nc2nccc(C(F)(F)F)n2)cc(-c2cn(CC(C)(O)CO)nn2)c1` (single isomer, unassigned) [Example 21.4, 2-methyl-3-[4-(3-methyl-5-{[4-(trifluoromethyl)pyrimidin-2-yl]amino}phenyl)-1H-1,2,3-triazol-1-yl]propane-1,2-diol], 10.3 nM.
Under `Cc1cc(Nc2nccc(C(F)(F)F)n2)cc(-n2cc([C@]3(O)CC[C@H](C(=O)OC(C)(C)C)CC3)nn2)c1` [Example 15.5, tert-butyl trans-4-hydroxy-4-[1-(3-methyl-5-{[4-(trifluoromethyl)pyrimidin-2-yl]amino}phenyl)-1H-1,2,3-triazol-4-yl]cyclohexanecarboxylate] stands 2390 nM; under `Cc1cc(Nc2cc(C(F)(F)F)ccn2)nc(-c2cn(C3CCNC(=O)CC3)nn2)c1` (racemic) [Example 11.2, 5-[4-(4-methyl-6-{[4-(trifluoromethyl)pyridin-2-yl]amino}pyridin-2-yl)-1H-1,2,3-triazol-1-yl]azepan-2-one], 23.8 nM; under `COCC(O)Cn1cc(-c2cc(C)cc(Nc3cc(C(F)(F)F)ccn3)n2)nn1` (stereo not shown) [Example 4.23, 1-methoxy-3-[4-(4-methyl-6-{[4-(trifluoromethyl)pyridin-2-yl]amino}pyridin-2-yl)-1H-1,2,3-triazol-1-yl]propan-2-ol], 5.4 nM.
In the case of `Cc1cc(Nc2nccc(C(F)(F)F)n2)cc(-n2cc(C3(O)CCC(C(N)=O)C(C)(C)C3)nn2)c1` (stereo not shown) [Example 1.58, 4-hydroxy-2,2-dimethyl-4-[1-(3-methyl-5-{[4-(trifluoromethyl)pyrimidin-2-yl]amino}phenyl)-1H-1,2,3-triazol-4-yl]cyclohexanecarboxamide], the IC50 stood at 29.7 nM.
`Cc1cc(Nc2cc(C(F)(F)F)ccn2)nc(-c2cn(C(C)C(=O)N[C@H]3C[C@@H]3c3ccccc3)nn2)c1` (stereo partly drawn) [Example 1.40, 2-[4-(4-methyl-6-{[4-(trifluoromethyl)pyridin-2-yl]amino}pyridin-2-yl)-1H-1,2,3-triazol-1-yl]-N-[(1S,2R)-2-phenylcyclopropyl]propanamide]: the half-inhibitory concentration (IC50) was 118 nM.
Under `Cc1cc(Nc2cc(C(F)(F)F)ccn2)nc(-c2cn(CC3(O)CCS(=O)(=O)CC3)nn2)c1` [Example 4.29, 4-{[4-(4-methyl-6-{[4-(trifluoromethyl)pyridin-2-yl]amino}pyridin-2-yl)-1H-1,2,3-triazol-1-yl]methyl}tetrahydro-2H-thiopyran-4-ol 1,1-dioxide] stands 8.2 nM; under `Cc1cc(Nc2cc(C(F)(F)F)ccn2)nc(-c2cn(C3C=CCCC3)nn2)c1` (stereo not shown) [Example 5.36, 6-(1-cyclohex-2-en-1-yl-1H-1,2,3-triazol-4-yl)-4-methyl-N-[4-(trifluoromethyl)pyridin-2-yl]pyridin-2-amine], 52 nM; under `Cc1cc(Nc2nccc(C(F)F)n2)cc(-c2cn(CC3CNCCO3)nn2)c1` (single isomer, unassigned) [Example 22.1, 4-(Difluoromethyl)-N-(3-methyl-5-(1-(morpholin-2-ylmethyl)-1H-1,2,3-triazol-4-yl)phenyl) pyrimidin-2-amine], 14.3 nM.
With `Cc1cc(Nc2cc(C(F)(F)F)ccn2)nc(-c2cn(-c3ncccc3Cl)nn2)c1` [Example 6.1, 6-(1-(3-Chloropyridin-2-yl)-1H-1,2,3-triazol-4-yl)-4-methyl-N-(4-(trifluoromethyl)pyridin-2-yl)pyridin-2-amine], the IC50 turned out to be 41 nM.
To `CC(O)(CO)Cn1cc(-c2cccc(Nc3nccc(C(F)(F)F)n3)c2)nn1` (single isomer, unassigned) [Example 21.6, 2-methyl-3-[4-(3-{[4-(trifluoromethyl)pyrimidin-2-yl]amino}phenyl)-1H-1,2,3-triazol-1-yl]propane-1,2-diol] belongs 44.6 nM.
To `C=C(C)Cn1cc(-c2cc(C)cc(Nc3cc(C(F)(F)F)ccn3)n2)nn1` [Example 5.40, 4-methyl-6-[1-(2-methylprop-2-en-1-yl)-1H-1,2,3-triazol-4-yl]-N-[4-(trifluoromethyl)pyridin-2-yl]pyridin-2-amine] belongs 28.9 nM.

A word on the IC50: it is the concentration that gives 50% inhibition.

These data come from patent US9586931B2 (Merck Sharp & Dohme Corp., priority 2012, dated 2017).
